Row | SMILES | melting point [°C]
1 | O=C(Nc1nnn[nH]1)c1cnc2sc3ccc(Cl)cc3n2c1=O | > 300
2 | CC(C)c1nn(-c2ccc(C#N)cn2)cc1CCCO | 105 to 106
3 | CC(C)(C)CC(C)(C)Nc1nc(NC(C)(C)CC(C)(C)C)nc(N2CC3CCC(CC3)C2)n1 | 126 to 127
4 | Cc1cc2c(cc1C)OCCC(C(=O)O)=C2 | 266 to 267
5 | O=C(O)C1(CCCCCC(O)CCCCCC2(C(=O)O)CC2)CC1 | 87 to 91
6 | O=C(O)CSc1sccc1Br | 64 to 65
7 | CCc1cccc(CC)c1NC(=O)CN | 70 to 71
8 | CC(=O)OC1CSC(Oc2ccc3ncsc3c2)C(OC(C)=O)C1OC(C)=O (stereo unspecified) | 166
9 | Cc1ccnc(N2CCN(CCCC3CNc4c(ccc(C)c4-c4cc(C)c(O)c(C)c4)O3)CC2)c1 (stereo unspecified) | 110
10 | C=CCNc1nc(NCC(C)(C)C)nc2ccc([N+](=O)[O-])cc12 | 167 to 168
11 | Clc1ccc2c(c1)CNC2 | 49 to 50
12 | OC1CSC(Oc2cncc(-c3ccc(F)cc3F)c2)C(O)C1O (stereo unspecified) | 221
13 | O=C(c1ccc(Cl)cc1)[C@H]1C[C@H]1C(=O)N1CCC(N2Cc3ccccc3NC2=O)CC1 (relative stereo) | 272 to 273
14 | COC(=O)c1cc(I)cc(C)c1O | 82 to 84
15 | CCOC(=O)c1ncoc1-c1cnc(Cl)c(Cl)c1 | 95 to 98
16 | CC1(C)CCC(C)(C)c2cc(-c3cc4ccc(C(=O)O)cc4[nH]3)ccc21 | 215
17 | ON=C1Cc2ccccc2C1 | 145 to 148
18 | COc1ccc(C=CCN2CCc3nc(N)sc3CC2)c(OC)c1 | 95 to 100
19 | CCCCCCc1cccc(NC2=NCCS2)c1 | 79 to 80
20 | N#Cc1cc(C(F)(F)F)[nH]c1-c1sc(Cl)c(Cl)c1Cl | 220 to 221
21 | CC(=O)N(C)C[C@H]1CN(c2ccc(N3CCC(=CC#N)CC3)c(F)c2)C(=O)O1 | 128 to 132
22 | CCCOC(=O)C1=C(C)NC(C#N)=C(C(=O)OC)C1c1ccccc1C#N (stereo unspecified) | 150 to 152

Row | SMILES | melting point [°C]
23 | CCOC(=O)Nc1cc(N)ccc1F | 88 to 89
24 | O=C(O)c1ccc(Br)cc1-c1cc(Cl)cc(Cl)c1 | 182 to 186
25 | CC(=O)OCCCCCCOc1ccc([N+](=O)[O-])c(C=O)c1 | 42 to 43
26 | Cc1cc2c(cc1C#N)C(c1ccccn1)=CC(C)(C)CO2 | 171
27 | CC1(C(=O)O)CCc2cc(O)ccc2O1 (stereo unspecified) | 190 to 192
28 | C=CCN1CCCC1CNC(=O)c1cc(S(=O)(=O)NC)cc2c1OCCO2 (stereo unspecified) | 101 to 102
29 | COc1cc(C=CC(=O)OC2CC3CC(OC(=O)C=Cc4cc(OC)c(OC)c(OC)c4)C(C2)N3C)cc(OC)c1OC (stereo unspecified) | 53 to 57
30 | CCOC(=O)c1nc(CCS(=O)(=O)c2ccc(Cl)cc2)no1 | 115 to 119
31 | CN1CCN=C1C(C#N)=NO | 216
32 | BrC12CCCC(C1)C1CCC2C1 (stereo unspecified) | 57.5 to 58.5
33 | CC(C)(C)OC(=O)C1CCCN1C(=O)NN (stereo unspecified) | 83 to 84
34 | Nc1nc2cc(F)ccc2s1 | 167
35 | O=C1c2ccc(Cl)cc2CN2C(=NO)CCC12 (stereo unspecified) | 249 to 252
36 | CCOC(=O)CCCCC(=O)c1c(C)n(C(=O)OC)c(=O)n1C(=O)OC | 74 to 76
37 | O=C1C(=O)N2CCSc3cc(Br)cc1c32 | 196
38 | C=CCSC[C@H](NC(=O)OC(C)(C)C)C(=O)OC | 37 to 38
39 | OC[C@H]1CCCN1c1nc2c(-c3nc(C4CC4)no3)ncn2c2cccc(Cl)c12 | 220 to 221
40 | Oc1ccc(-c2nc(Br)c[nH]2)cc1 | 210 to 212
41 | CCCCCCCCCCCCn1c(=O)c(=O)[nH]c2c3ccccc3ccc21 | 180
42 | C=CCNc1nc(NC(=O)NCCCC)c2scc(C)c2n1 | 141
43 | COC(=O)CCCC(N)=O | 80
44 | Cc1c(O)cc2c(c1C)N(C=O)C(C)C2 (stereo unspecified) | 155 to 159

Next, values leading:

Row | melting point [°C] | SMILES
45 | 70 to 75 | CNC(=O)Nc1cc(-c2ccc(S(C)(=O)=O)cc2)c(-c2ccc(F)cc2)s1
46 | 173 to 176 | Cn1cc(C(=O)CCl)cc1C(=O)c1ccc([N+](=O)[O-])cc1
47 | 65 to 70 | CCOC(=O)NN=C(c1ccc(Cl)cc1)c1ccc(CS(C)=O)cc1 (stereo unspecified)
48 | 93 | Cc1ccc(CC2CCN(C(=O)c3nc4ccc(O)cc4[nH]3)CC2)cc1
49 | 283 to 285 | Cc1noc(-c2nnc3c4ccccc4c(OCc4ncn(C)n4)nn23)n1
50 | 156 | Nc1cccc(-c2cccc(-c3nc(-c4ccc(C(F)(F)F)cc4)cc(C(F)(F)F)n3)c2)c1
51 | 262 | CCCCn1c2ccc(C)cc2c(=O)c2c1cnn2C
52 | 190 to 191 | Cc1ccc(C(=O)Nc2c(NC(=O)CN(C)C)ccc3c2C(=O)c2ccccc2C3=O)cc1
53 | 163 to 166 | CN1CCC(c2cccc3c2C[C@H](NC(=O)c2ccc(C(F)(F)F)cc2)CC3)CC1
54 | 155 to 157 | O=C1CCC(N2C(=O)c3cccc(CNC(=O)c4cccc(C(F)(F)F)c4F)c3C2=O)C(=O)N1 (stereo unspecified)
55 | 124 to 125 | CCCCCCCCCCCC(=O)c1ccc(-c2ccc(OC)c(F)c2)cc1
56 | 104 to 105 | N#Cc1ccc(-c2ccc(-c3ccco3)o2)cc1
57 | 152 to 154 | N=C(Nc1ccc(F)cc1)Nc1ncccc1OCc1c(F)cccc1Cl
58 | 124 to 126 | CNCCC(=O)N1c2ccccc2N2CCc3cccc(c32)C1C (stereo unspecified)
59 | 237 to 239 | COc1cc(Cl)ccc1C(=O)Nc1ccc(C(=O)N2Cc3ccccc3Cc3ccccc32)cc1
60 | 269 to 270 | COc1ccc2c(c1)c(C=C1SC(=N)NC1=O)c(C)n2C(=O)c1ccc(Cl)cc1
61 | 111 to 113 | C=C(CCC)C(=O)c1ccc(OCC(=O)O)c(Cl)c1Cl
62 | 123 to 124 | CCCC[C@H](NC(=O)[C@H](Cc1ccccc1)NC(=O)OCc1ccccc1)C(=O)CSCc1ccco1
63 | > 300 | Cc1[nH]c(=O)c2cc3nc(-c4ccncc4)[nH]c3cc2c1C

Row | melting point [°C] | SMILES
64 | 133 to 135 | Cc1cccc(Oc2cccc(C#CC(C)N(O)C(N)=O)c2)n1 (stereo unspecified)
65 | 52 to 53 | CCCCCCCCCCCCCCOc1ccc(COC(=O)N(Cc2ccccn2)C(C)=O)cc1
66 | 124 to 128 | Cc1[nH]cnc1CCCCNC(=O)c1ccccc1
67 | 182 | CN(C1CCSCC1)S(=O)(=O)c1ccc(Nc2nccc(Nc3ccc(F)cc3)n2)cc1
68 | 186 to 188 | CS(=O)(=O)c1ccc(-n2nc(C(F)(F)F)cc2-c2nc3cccc(F)c3s2)cc1
69 | 198 to 200 | N#Cc1ccc(N(Cc2ccc(OS(N)(=O)=O)c(F)c2)n2cnnc2)cc1-c1ccccc1
70 | 186 to 187 | Oc1ccc2oc(-c3cc(OCc4ccccc4)c(O)cc3-c3ccccc3)cc2c1
71 | 188 to 190 | CC(C)(C)[Si](C)(C)Oc1ccc2c(c1)OC(O)c1c-2ccc2cc(O[Si](C)(C)C(C)(C)C)ccc12 (stereo unspecified)
72 | 106 to 113 | CCOC(Cc1ccc(OCCN2c3ccccc3Sc3ccccc32)cc1)C(=O)O (stereo unspecified)
73 | 79 to 80 | CCOC(=O)c1cc(Cc2ccccc2)c(O)c2ccccc12
74 | 188 to 189 | CCCCCOCCOc1ccc(-c2ccc3c(c2)C=C(C(=O)Nc2ccc(CN(C)C4CCOCC4)cc2)CCS3(=O)=O)cc1
75 | 90 to 92 | COc1ccccc1CS(=O)(=O)Cc1ccccc1OC
76 | 169 to 170 | O=C(O)CCc1cn(Cc2ccc(OCc3ccc(-c4ccccc4)cn3)cc2)cc1-c1ccccc1
77 | 179 to 180 | Cc1oc(-c2ccccc2)nc1COc1ccc2cc(CC3SC(=O)NC3=O)oc2c1 (stereo unspecified)
78 | 145 to 146 | CCOC(=O)c1ccc(OCc2nc(-c3ccco3)oc2C)c(Cl)c1
79 | 169 | CCOc1cc(C(CC(N)=O)N2Cc3ccccc3C2=O)ccc1OC (stereo unspecified)
80 | 148 to 150 | CN(C)CCCNC(=O)c1ccc(-c2ccc3nnn(Cc4ccc5ncccc5c4)c3n2)cc1F
81 | 75 to 83 | CC(C)(C)OC(=O)N1[C@@H](Cc2ccc(O[Si](C)(C)C(C)(C)C)c(C(C)(C)C)c2)C(=O)O[C@H](c2ccccc2)[C@@H]1c1ccccc1
82 | 45 to 47 | Cc1ccc(Oc2ccc(OC(=O)NC(C)CCCC(C)C)cc2)cc1 (stereo unspecified)

Row | melting point [°C] | SMILES
83 | 91 to 92 | COc1cc(C(=O)CCCc2ccccc2)ccc1O
84 | 99.8 to 100 | c1ccc(CCCn2c(-c3ccc4c(c3)OCO4)nc3ccccc32)cc1
85 | 52 to 55 | Cc1ccc(C(=O)c2cccc(C(C)C#N)c2)cc1 (stereo unspecified)
86 | 185 to 188 | CCS(=O)CCC(=O)NNC(=O)N1Cc2ccccc2Oc2ccc(Cl)cc21 (stereo unspecified)
87 | 69 | CCOc1c(C(=O)Nc2ccccc2)csc1Cl
88 | 323 to 324 | Cc1cnc2c(cc(C(N)=O)c3nncc32)c(-c2ccccc2F)n1
89 | 71 to 72 | O=C(CCc1ccc(OCc2ccccc2)cc1)C(F)(F)F
90 | 135 to 140 | Nc1nc2c(s1)CCN(CC=Cc1ccc(OCc3ccccc3)cc1)CC2
91 | 213 to 214 | O=C(O)COc1cccc2c1CCc1sc(S(=O)(=O)C(c3cccc(F)c3)c3cccc(F)c3)nc1-2
92 | 163 to 164 | CC1(C)C(=O)c2c(cc(OCC(=O)O)c(Cl)c2Cl)C1c1ccccc1 (stereo unspecified)
93 | 62 to 64 | Cc1cc(SC(C)c2cccc3cn(-c4ccc(C(F)(F)F)cc4)nc23)ccc1OCC(=O)O (stereo unspecified)
94 | 140 to 143 | Nc1c(SC(F)(F)F)c(C=O)nn1-c1c(Cl)cc(C(F)(F)F)cc1Cl
95 | 100 to 101 | OCc1ccc(-c2ccc(F)cn2)cc1
96 | 160 | O=C(O)CCCc1cc2nc(Cl)ccc2n1S(=O)(=O)c1ccc2c(c1)OCO2
97 | 68.5 to 70 | COC(=O)Cc1ccc(OS(=O)(=O)C(F)(F)F)c(NC(C)=O)c1
98 | 93 to 98 | CCc1cn(C2CC(I)C(COC(c3ccccc3)(c3ccccc3)c3ccccc3)O2)c(=O)[nH]c1=O (stereo unspecified)
99 | 80 to 81 | COc1ccc(-c2c(C#N)ccnc2SC)cc1
100 | 114 | CC(C)c1cc(Br)cc(C(C)C)c1N=C(c1ccccc1)c1ccccc1
101 | 99 to 102 | O=C(O)Cc1cccc(Oc2cccc(Cl)c2)c1O

Reference: a melting point compilation (Tetko et al.; mined from patent text by program, amines drawn as free bases though some values may be those of a salt)
